Earlier results, collected in US20020187165A1, “Composition for female sexual arousal” (Joseph F. Long, priority 2001, published 2002).

Conditions: following oral administration

Cn1cc([S+](C)[O-])c(=O)c2ccc(F)cc21 (stereo not shown) [flosequinan]
time of peak plasma concentrations: 1 to 2 h
